Results on nine compounds are retold here after US5882851A, “Cytochrome P-450 monooxygenases” (Novartis Finance Corporation, priority 1993, dated 1999).

≈ marks a conversion by molar mass, not a printed value. Like-named read-outs stand apart in the source and are kept apart here.

One data set has as its target T1, cytochrome P-450TYR (Sorghum bicolor, UniProt Q43135).
T1 construct: from tissue; host or cells: microsomes of etiolated Sorghum bicolor seedlings, solubilised and purified by dye columns
T1 sequence (Q43135 1-558): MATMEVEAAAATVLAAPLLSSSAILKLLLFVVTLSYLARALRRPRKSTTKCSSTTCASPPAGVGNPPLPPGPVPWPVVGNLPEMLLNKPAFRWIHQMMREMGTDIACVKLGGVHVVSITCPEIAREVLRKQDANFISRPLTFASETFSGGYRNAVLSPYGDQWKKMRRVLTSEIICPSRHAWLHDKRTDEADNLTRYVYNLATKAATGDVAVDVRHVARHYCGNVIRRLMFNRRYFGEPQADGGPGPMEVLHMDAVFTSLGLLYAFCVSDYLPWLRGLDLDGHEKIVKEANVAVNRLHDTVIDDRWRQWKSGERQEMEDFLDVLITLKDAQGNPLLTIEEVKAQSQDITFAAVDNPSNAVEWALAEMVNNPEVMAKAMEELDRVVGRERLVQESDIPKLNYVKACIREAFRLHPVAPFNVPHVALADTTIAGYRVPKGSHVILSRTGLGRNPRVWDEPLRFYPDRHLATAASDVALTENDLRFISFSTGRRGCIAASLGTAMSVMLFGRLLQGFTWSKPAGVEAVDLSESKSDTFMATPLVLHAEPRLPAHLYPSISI
Put plainly: Substrate binding spectra of isolated sorghum cytochrome P-450TYR (difference spectrum A390-420). Here is the method: Cytochrome P-450 substrate binding spectra are recorded with stepwise increased substrate concentration until saturating conditions are reached.
Cytochrome P-450TYR in the oxidized state has a strong absorption peak at 420 nm, representing the low spin state of the iron of the heme group. The binding of a ligand to the heme group shifts the absorption maximum by changing the spin state of the iron. […] The following experimental procedure is used to obtain the substrate binding spectrum: two identical cuvettes containing a buffered solution of the isolated cytochrome P-450 are prepared. The substrate of the enzyme is added to the sample cuvette whereas the same volume of buffer is added to the other cuvette. The difference spectrum is then recorded in an SLM-Aminco DW2c spectrophotometer. The absorption difference, A390-420, is proportional to the concentration of cytochrome P-450TYR with a bound substrate at its active site. If a saturating concentration of substrate is added to the sample cuvette, the absorption difference is proportional to the concentration of the substrate specific cytochrome P-450 in the cuvettes. The saturating concentration of the substrate is determined by titrating the cytochrome P-450 sample with increasing amounts of substrate and monitoring A390-420.
If a cytochrome P-450 sample can be saturated with two different substrates, there may be two different cytochrome P-450 enzymes in the sample, or there may be one cytochrome P-450 enzyme able to bind to both substrates. To discriminate between these possibilities, saturating amounts of the two substrates are added sequentially and the A390-420absorption change is monitored. If, independent of the order of addition, the addition of the second sample gives rise to an increased A390-420value compared to the value after the addition of the first substrate, the two substrates are bound by different enzymes. If A390-420 remains unchanged upon addition of the second substrate, independent of the order of addition, both substrates bind to the same active site, i.e. to the same cytochrome P-450 enzyme.

For data set [1], the target named is T2, P-450TYR expressed in E. coli (Sorghum bicolor, UniProt Q43135).
T2 construct: in which the 35 N-terminal amino acids are replaced by the nine N-terminal amino acids from bovine 17α hydroxylase; nine N-terminal amino acids from bovine 17alpha-hydroxylase (replace the 35 N-terminal residues) (N); made in house; host or cells: E. coli JM109, vector pSP19g10L
T2 sequence (Q43135 other isoform, or with tags, fused parts or gaps): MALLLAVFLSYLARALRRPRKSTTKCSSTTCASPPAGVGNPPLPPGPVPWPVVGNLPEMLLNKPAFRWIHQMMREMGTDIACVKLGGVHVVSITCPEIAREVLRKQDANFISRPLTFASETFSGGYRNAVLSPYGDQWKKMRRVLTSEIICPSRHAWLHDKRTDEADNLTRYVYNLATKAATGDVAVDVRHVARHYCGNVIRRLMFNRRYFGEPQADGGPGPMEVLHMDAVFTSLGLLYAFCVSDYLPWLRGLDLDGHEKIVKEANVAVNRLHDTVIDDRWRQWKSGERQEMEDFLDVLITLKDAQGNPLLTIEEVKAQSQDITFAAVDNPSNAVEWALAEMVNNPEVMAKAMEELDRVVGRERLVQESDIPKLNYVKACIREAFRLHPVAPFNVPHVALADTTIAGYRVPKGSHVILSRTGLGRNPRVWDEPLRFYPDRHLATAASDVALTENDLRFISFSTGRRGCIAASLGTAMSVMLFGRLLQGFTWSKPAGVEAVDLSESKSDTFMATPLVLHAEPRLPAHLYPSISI
Put plainly: Substrate binding spectra of P-450TYR expressed in E. coli. The text has this:
Cytochrome P-450TYR in the oxidized state has a strong absorption peak at 420 nm, representing the low spin state of the iron of the heme group. The binding of a ligand to the heme group shifts the absorption maximum by changing the spin state of the iron. Binding of tyrosine at the catalytic site of cytochrome P-450TYR induces a change of the spin state of the oxidized iron from low to high spin, and thereby changes the absorption maximum from 420 nm to 390 nm producing a type I spectrum (Jefcoate, Methods in Enzymology 52:258-279, 1978). The following experimental procedure is used to obtain the substrate binding spectrum: two identical cuvettes containing a buffered solution of the isolated cytochrome P-450 are prepared. The substrate of the enzyme is added to the sample cuvette whereas the same volume of buffer is added to the other cuvette. The difference spectrum is then recorded in an SLM-Aminco DW2c spectrophotometer. The absorption difference, A390-420, is proportional to the concentration of cytochrome P-450TYR with a bound substrate at its active site. If a saturating concentration of substrate is added to the sample cuvette, the absorption difference is proportional to the concentration of the substrate specific cytochrome P-450 in the cuvettes. The saturating concentration of the substrate is determined by titrating the cytochrome P-450 sample with increasing amounts of substrate and monitoring A390-420.
A modified cytocrome P-450TYR, in which the 35 N-terminal amino acids are replaced by the nine N-terminal amino acids from bovine 17α hydroxylase is introduced into the expression vector pSP19g10L which can be obtained from Dr. Henry Barnes (La Jolla, Calif.). This plasmid contains the lac Z promoter fused with the known short leader sequence (g10L) of gene 10 from bacteriophage T7 (Olin et al, 1988). A construct containing the N-terminal amino acids from bovine 17α hydroxylase and a truncated form of the P-450TYR gene is designed using PCR mutagenesis: Oligonucleotide TYROL 1d (5'-CGGGATCCATATGGCTCTGTTATTAGCAGTTTTTCTGTCGTACCTGGCCCG-3'; SEQ ID NO 23) containing a 5' mutant cDNA sequence as well as a BamHI and NdeI restriction site is used together with oligonucleotide TYROL 3 comprising the sequence surrounding the unique BamHI restriction site downstream of the ATG start codon of the cDNA coding for P-450TYR to amplify a modified N-terminal sequence of P-450TYR. The amplification product is cut with NdeI and BamHI restriction enzymes. To introduce a HindIII site immediately downstream of the stop codon of the P-450TYR gene, oligonucleotides TYROL 2 and TYROL 4 are used in a polymerase chain reaction to obtain a C-terminal fragment of the P-450TYR gene comprising a HindIII restriction site immediately downstream of the stop codon. The amplification product is cut with PstI and HindIII restriction enzymes. The complete expression plasmid is constructed by simultaneous ligation of the N-terminal NdeI/BamHI fragment, the BamHI/PstI fragment of the P-450TYR gene and the C-terminal PstI/HindIII fragment into NdeI/HindIII cleaved pSP19g10L vector DNA. The expression vector obtained is transformed into E. coli strain JM109. Transformed E. coli produce 300 nmol to 500 nmol cytochrome P-450TYR per liter cell culture upon growth at 28° C. in the presence of 1 mM isopropyl-β-D-thiogalactopyranoside and at 125 rpm. Expression levels as high as 900 nmol per liter, equivalent to 55 mg P-450TYR per liter, have been obtained. […]

Data set [2] has as its system Western Corn Root Worm (WCRW). Put plainly: Larval mortality of Western Corn Root Worm on diet. In kind it is in vivo, Diabrotica virgifera virgifera. The source says:
Insects or insect larvae are fed on a diet containing added cyanogenic glycoside, a diet containing added cyanogenic glycoside, and callus, or a diet supplemented with the supernatant of callus ground-up in the presence of the cyanogenic glycoside. Mortality is compared to the mortality of insects or insect larvae fed on the diet only.
WCRW larvae are fed on a diet with added amygdalin, a diet with added amygdalin and Black Mexican Sweet (BMS) callus or on a diet supplemented with the supernatant of BMS-callus ground-up in the presence of amygdalin. Larval mortality is compared to the mortality of larvae fed on the diet only.
The activity of dhurrin on larval mortality of WCRW was determined as described for amygdalin in example 12.

The next data set relates to glucosinolate production. Put plainly: Induction of glucosinolate production in Tropaeolum majus. The format is in vivo. Here is the method: Seeds of Tropaeolum majus L. cv Empress of India (Dansk Havefroforsyning, Kolding, DK) are allowed to imbibe and germinate in complete darkness for one week at 25° C. In vivo biosynthesis experiments are performed wherein 1 μCi of the tracer ^14 C-labelled phenylalanine is administered to excised dark-grown seedlings for 24 hours followed by boiling of the plant material in 90% methanol and analysis of the extracts by HPLC as described by Lykkesfeldt and Moller, 1993. Prior to administration of the tracer to the excised seedling or leaf, the intact plant is subjected to a potential inducer for 24 hours.

The subject of data set [3] is biosynthesis of glucosinolates. Description: In vivo effect of cytochrome P450 inhibitors on glucosinolate in etiolated tropaeolum seedlings. The following applies: 1 mM inhibitor; for effect on glucosinolate: radioactively labelled phenylalanine, etiolated tropaeolum seedlings.

For `O=C(O)[C@H](Cc1ccc(O)cc1)NO` [N-hydroxytyrosine], the figures for the “initial A390-420” value at cytochrome P-450TYR (50 μl 20 mM N-hydroxytyrosine), at cytochrome P-450TYR (120 μl 5 mM N-hydroxytyrosine) and at cytochrome P-450TYR (140 μl 5 mM N-hydroxytyrosine) were 0,0689, 0,0919 and 0,0911, respectively. For the same compound, the “resulting A390-420” value on cytochrome P-450TYR (50 μl 20 mM N-hydroxytyrosine, dilution factor 550/500) is given as 0,0758; on cytochrome P-450TYR (120 μl 5 mM N-hydroxytyrosine, dilution factor 620/500) it was 0,1140; on cytochrome P-450TYR (140 μl 5 mM N-hydroxytyrosine, dilution factor 640/500) it was 0,1166. In addition, the “type of substrate binding spectrum” value on cytochrome P-450TYR (isolated sorghum P-450TYR) is recorded as “type I binding spectrum”. For the same compound, in data set [1], the “molar extinction coefficient E420-390” value amounted to 64.6 cm⁻¹ mM⁻¹.

Regarding `N#C[C@H](O[C@@H]1O[C@H](CO[C@@H]2O[C@H](CO)[C@@H](O)[C@H](O)[C@H]2O)[C@@H](O)[C@H](O)[C@H]1O)c1ccccc1` [amygdalin], the lethality entry in data set [2] (WCRW larvae, 2 mg/ml, in the absence of BMS-callus) was “lethal”; in data set [2] (WCRW larvae, concentrations of less than 1 mg/ml, BMS-callus absent) it was “significantly less lethality”. The LC50 (usually the concentration lethal to half of the exposed cells or organisms) in data set [2] (WCRW larvae, in the presence of BMS-callus, read-out: LC50) was ~1000 µg/mL.

On to `N#C[C@@H](O[C@@H]1O[C@H](CO)[C@@H](O)[C@H](O)[C@H]1O)c1ccc(O)cc1` [dhurrin], for which the LC50 in data set [2] was 368 µg/mL (≈ 1180 µM). In data set [2] (WCRW larvae), the “95% confidence limits of LC50” value lay within 0.28 to 0.48 µg/mL and the “slope of the regression line” value was 2.5.

`CCO` [ethanol]: in the data set on glucosinolate production (10 mM phenylalanine or 2% ethanol administered to the vermiculate, 24 hours, etiolated seedlings), the “increase in glucosinolate production as compared to control experiments with water” value was “threefold increase”.

Take `CC/C=C\C[C@H]1C(=O)CC[C@@H]1CC(=O)O` [jasmonic acid]: the “induction of glucosinolate production” value in the data set on glucosinolate production (spraying with 100 μM, incubation 24 hours, etiolated seedlings and green leaves) was “fivefold induction”.

For the compound `ON=CCc1ccc(O)cc1` [p-hydroxyphenylacetaldehyde oxime], the “type of substrate binding spectrum” value in data set [1] was “type Ispectrum”.

Take `N#CCc1ccc(O)cc1` [p-hydroxyphenylacetonitrile]: the “type of substrate binding spectrum” value in data set [1] was “type Ispectrum”.

In the case of `Clc1ccc(N2N=NC3C4CC(C5N=NC45)C32)cc1` (stereo not drawn) [tetcyclacis], in data set [3], the effect on glucosinolate result is “reduction of glucosinolate”.

As for enilketoconazol, in data set [3] (measured by ethanol extraction of the plant material), the “effect on uptake of phenylalanine” value is given as “without causing a reduction in the uptake of phenylalanine”. In addition, in data set [3], the effect on glucosinolate result was “reduction of glucosinolate”.
